Experiments:
[1] = test system: MCF-7 (hormone receptor/HR-positive breast cancer cells); assay: MTT cell viability assay in MCF-7 cells; type: cell-based; conditions: Homo sapiens, MCF7, read-out: Cell viability (%) ± SD; for viability at 1 µM: MCF-7, 1 µM; for viability at 10 µM: MCF-7, 10 µM; for viability at 25 µM: MCF-7, 25 µM
Protocol: MDA-MB-231 represents a specific subtype known as triple-negative breast cancer (TNBC). The investigation study was extended with active six hit compounds (9a, 9d, 9h, 10d, 10f, and 11g) in two other different cancer cell lines (MCF-7 and MDA-MB-453), each representing a separate class of breast cancers (MCF-7: hormone receptor/HR-positive; MDA-MB-453: human epidermal growth factor 2 receptor/HER2 positive).
We also included normal mammary epithelial MCF-10A cells in our experiments to confirm if the growth-inhibitory activities of the selected compounds are truly cancer cell-specific. The activity data from MCF-7 and MDA-MB-453 cell lines (tested at 1 µM, 10 µM and 25 µM) and activity data from MCF-10A cell line (tested at 25 µM, 50 µM and 100 µM) are summarized in Table 3.
(§1) To evaluate cell viability, the MTT assay was conducted following standard procedures. After 72 h of cell incubation with or without each compound, cell viability was assessed using MTT (3-(4,5-dimethylthiazol-2-yl)-2,5-diphenyltetrazolium bromide), which is a colorimetric method for determining the number of viable cells in various assays including proliferation, cytotoxicity, or chemosensitivity. The MTT reagent was added to the cells after removal of the medium and incubated for 3 h at 37 °C in the CO2 incubator. The formazan product, which is […] in the tissue culture medium, was dissolved in DMSO, and the absorbance of the formazan product was directly measured at 595 nm using a multimode plate reader without additional processing. The absorbance values are directly proportional to the number of viable cells in culture. The percentage of viable cells in each group was determined relative to the untreated control cells.

[2] = test system: normal mammary epithelial MCF-10A cells; assay: MTT cell viability assay in normal MCF-10A cells; type: cell-based; conditions: tested at 25 µM, 50 µM and 100 µM
Protocol: as §1, with “We also included normal mammary epithelial MCF-10A cells in our experiments to confirm if the growth-inhibitory activities of the selected compounds are truly cancer cell-specific. The activity data from MCF-7 and MDA-MB-453 cell lines (tested at 1 µM, 10 µM and 25 µM) and activity data from MCF-10A cell line (tested at 25 µM, 50 µM and 100 µM) are summarized in Table 3. To” for “To”

[3] = MTT cell viability assay in normal MCF-10A cells; type: cell-based; conditions: human, MCF-10A normal mammary epithelial cells, MCF-10A normal cells, read-out: Cell viability (%) ± SD
Protocol: as §1, with “We also included normal mammary epithelial MCF-10A cells in our experiments to confirm if the growth-inhibitory activities of the selected compounds are truly cancer cell-specific. The activity data from MCF-7 and MDA-MB-453 cell lines (tested at 1 µM, 10 µM and 25 µM) and activity data from MCF-10A cell line (tested at 25 µM, 50 µM and 100 µM) are summarized in Table 3. To” for “To”

[4] = test system: MDA-MB-453 (HER2 positive breast cancer cells); assay: MTT cell viability assay in MDA-MB-453 cells; type: cell-based, human; conditions: for viability at 1 µM / viability at 10 µM / viability at 25 µM: Homo sapiens, read-out: Cell viability (%) ± SD; for viability at 1 µM: MDA-MB-453, 1 µM; for viability at 10 µM: MDA-MB-453, 10 µM; for viability at 25 µM: MDA-MB-453, 25 µM; for IC50 value against MDA-MB-453 cells (in words): tested at 1 µM, 10 µM and 25 µM
Protocol: MDA-MB-231 represents a specific subtype known as triple-negative breast cancer (TNBC). The investigation study was extended with active six hit compounds (9a, 9d, 9h, 10d, 10f, and 11g) in two other different cancer cell lines (MCF-7 and MDA-MB-453), each representing a separate class of breast cancers (MCF-7: hormone receptor/HR-positive; MDA-MB-453: human epidermal growth factor 2 receptor/HER2 positive). […] We also included normal mammary epithelial MCF-10A cells in our experiments to confirm if the growth-inhibitory activities of the selected compounds are truly cancer cell-specific. The activity data from MCF-7 and MDA-MB-453 cell lines (tested at 1 µM, 10 µM and 25 µM) and activity data from MCF-10A cell line (tested at 25 µM, 50 µM and 100 µM) are summarized in Table 3. To evaluate cell viability, the MTT assay was conducted following standard procedures. After 72 h of cell incubation with or without each compound, cell viability was assessed using MTT (3-(4,5-dimethylthiazol-2-yl)-2,5-diphenyltetrazolium bromide), which is a colorimetric method for determining the number of viable cells in various assays including proliferation, cytotoxicity, or chemosensitivity. The MTT reagent was added to the cells after removal of the medium and incubated for 3 h at 37 °C in the CO2 incubator. The formazan product, which is […] in the tissue culture medium, was dissolved in DMSO, and the absorbance of the formazan product was directly measured at 595 nm using a multimode plate reader without additional processing. The absorbance values are directly proportional to the number of viable cells in culture. The percentage of viable cells in each group was determined relative to the untreated control cells.

| Structure (SMILES) | viability at 1 µM [1] [%] | viability at 10 µM [1] [%] | viability at 25 µM [1] [%] | growth inhibitory activity against normal breast epithelial cell (MCF-10A) (in words) [2] | viability at 72 h, 25 µM [3] [%] | viability at 72 h, 50 µM [3] [%] | viability at 72 h, 100 µM [3] [%] | viability at 1 µM [4] [%] | viability at 10 µM [4] [%] | viability at 25 µM [4] [%] | IC50 value against MDA-MB-453 cells (in words) [4] |
| --- | --- | --- | --- | --- | --- | --- | --- | --- | --- | --- | --- |
| CC(=O)OC[C@H]1O[C@@H](n2cc(COc3cc(-c4ccc(C(F)(F)F)cc4)nc4ccnn34)nn2)[C@H](OC(C)=O)[C@@H](OC(C)=O)[C@H]1OC(C)=O [Compound 10f, (2R,3S,4S,5R,6R)-2-(acetoxymethyl)-6-(4-(((5-(4-(trifluoromethyl)phenyl)pyrazolo[1,5-a]pyrimidin-7-yl)oxy)methyl)-1H-1,2,3-triazol-1-yl)tetrahydro-2H-pyran-3,4,5-triyl triacetate] | 51.3 ± 3.1 | 28.4 ± 0.9 | 21.1 ± 4.4 | none of these compounds did have any growth inhibitory activity | 86.6 ± 1.5 | 88.1 ± 2.8 | 84.2 ± 3 | 92.5 ± 4.6 | 80.9 ± 1.2 | 66.8 ± 1.7 | did not reach up to IC50 value |
| CC(=O)OC[C@H]1O[C@@H](n2cc(COc3cc(-c4ccc5ccccc5c4)nc4ccnn34)nn2)[C@H](OC(C)=O)[C@@H](OC(C)=O)[C@@H]1OC(C)=O [Compound 9h, (2R,3R,4S,5R,6R)-2-(acetoxymethyl)-6-(4-(((5-(naphthalen-2-yl)pyrazolo[1,5-a]pyrimidin-7-yl)oxy)methyl)-1H-1,2,3-triazol-1-yl)tetrahydro-2H-pyran-3,4,5-triyl triacetate] | 79.2 ± 2.6 | 58.7 ± 2.4 | 42.3 ± 7.6 | none of these compounds did have any growth inhibitory activity | 86.8 ± 5.3 | 88.8 ± 3 | 68.5 ± 3.4 | 105 ± 8.1 | 74.8 ± 1.5 | 66.4 ± 3.2 | did not reach up to IC50 value |
| CC(=O)OC[C@H]1O[C@@H](n2cc(COc3cc(-c4ccc(C)cc4)nc4ccnn34)nn2)[C@H](OC(C)=O)[C@@H](OC(C)=O)[C@@H]1OC(C)=O [Compound 9a, (2R,3R,4S,5R,6R)-2-(acetoxymethyl)-6-(4-(((5-(p-tolyl)pyrazolo[1,5-a]pyrimidin-7-yl)oxy)methyl)-1H-1,2,3-triazol-1-yl)tetrahydro-2H-pyran-3,4,5-triyl triacetate] | 68.7 ± 1.18 | 41.3 ± 3.6 | 21.7 ± 4 | none of these compounds did have any growth inhibitory activity | 88.6 ± 1.5 | 84.3 ± 2.9 | 84.2 ± 3 | 80.6 ± 8 | 86.4 ± 5.4 | 78.1 ± 5.7 | did not reach up to IC50 value |
| CC(=O)OC[C@H]1O[C@@H](n2cc(COc3cc(-c4ccc(Cl)cc4)nc4ccnn34)nn2)[C@H](OC(C)=O)[C@@H](OC(C)=O)[C@H]1OC(C)=O [Compound 10d, (2R,3S,4S,5R,6R)-2-(acetoxymethyl)-6-(4-(((5-(4-chlorophenyl)pyrazolo[1,5-a]pyrimidin-7-yl)oxy)methyl)-1H-1,2,3-triazol-1-yl)tetrahydro-2H-pyran-3,4,5-triyl triacetate] | 66 ± 4.7 | 34 ± 2.5 | 20 ± 2.9 | none of these compounds did have any growth inhibitory activity | 89.6 ± 2.2 | 85.6 ± 1.7 | 84.4 ± 2.6 | 88.8 ± 5.2 | 78.3 ± 4.7 | 69.6 ± 5.3 | did not reach up to IC50 value |
| CC(=O)OC[C@H]1O[C@H](n2cc(COc3cc(-c4ccc(C(C)C)cc4)nc4ccnn34)nn2)[C@@H](OC(C)=O)[C@@H](OC(C)=O)[C@@H]1OC(C)=O [Compound 11g, (2R,3R,4S,5S,6S)-2-(acetoxymethyl)-6-(4-(((5-(4-isopropylphenyl)pyrazolo[1,5-a]pyrimidin-7-yl)oxy)methyl)-1H-1,2,3-triazol-1-yl)tetrahydro-2H-pyran-3,4,5-triyl triacetate] | 70.8 ± 4.2 | 68.2 ± 3.8 | 49.1 ± 3.5 | none of these compounds did have any growth inhibitory activity | 89.8 ± 2.8 | 84.2 ± 5.8 | 88 ± 1.5 | 95.4 ± 4.8 | 76.4 ± 5.4 | 96.1 ± 35.7 | did not reach up to IC50 value |
| CC(=O)OC[C@H]1O[C@@H](n2cc(COc3cc(-c4ccc(Cl)cc4)nc4ccnn34)nn2)[C@H](OC(C)=O)[C@@H](OC(C)=O)[C@@H]1OC(C)=O [Compound 9d, (2R,3R,4S,5R,6R)-2-(acetoxymethyl)-6-(4-(((5-(4-chlorophenyl)pyrazolo[1,5-a]pyrimidin-7-yl)oxy)methyl)-1H-1,2,3-triazol-1-yl)tetrahydro-2H-pyran-3,4,5-triyl triacetate] | 100 ± 4.5 | 69.8 ± 1.8 | 62.8 ± 3 | none of these compounds did have any growth inhibitory activity | 87.8 ± 2.8 | 85.6 ± 0.7 | 82 ± 1.5 | 80.8 ± 3.2 | 82.2 ± 11.5 | 65.3 ± 5.8 | did not reach up to IC50 value |

Reference: PMC10766964, “Copper-catalyzed synthesis of pyrazolo[1,5-a]pyrimidine based triazole-linked glycohybrids: mechanistic insights and bio-applications” (Scientific Reports, 2024)
